tested on: parental untransformed BaF3 cells; assay: Tritiated thymidine uptake cell proliferation assay, parental BaF3; type: cell-based; details: 3H-thymidine uptake, 72 h, medium with IL-3

Row | Compound | IC50 [µM]
1 | 62:38 mixture of (E)-6-(4-(4-methylpiperazin-1-yl)phenyl)-4-(1-phenylbut-1-en-2-yl)-9H-pyrido[2,3-b]indole and (E)-6-(4-(4-methylpiperazin-1-yl)phenyl)-4-(1-phenylbut-1-en-1-yl)-9H-pyrido[2,3-b]indole [Example 31] | 0.93

same assay, conditions: Mus musculus, BaF3; 3H-thymidine uptake, 72 h, medium with IL-3

Row | Compound | IC50 [µM]
2 | CN1CCN(c2ccc(-c3ccc4[nH]c5nccc(Cl)c5c4c3)cc2)CC1 [Example 1, 4-Chloro-6-[4-(4-methylpiperazin-1-yl)-phenyl]-9H-pyrido[2,3-b]indole] | 1.4
3 | CN1CCN(c2ccc(-c3ccc4[nH]c5nccc(/C=C/c6ccccc6)c5c4c3)cc2)CC1 [Example 2, (E)-6-[4-(4-Methylpiperazin-1-yl)-phenyl]-4-(2-phenylvinyl)-9H-pyrido[2,3-b]indole] | 0.8
4 | C/C(=C\c1ccccc1C(F)(F)F)c1ccnc2[nH]c3ccc(-c4ccc(N5CCN(C)CC5)cc4)cc3c12 [Example 3, (E)-6-[4-(4-Methylpiperazin-1-yl)-phenyl]-4-[1-(2-(trifluoromethyl)phenyl)prop-1-en-2-yl]-9H-pyrido[2,3-b]indole] | 2.4
5 | CN1CCN(c2ccc(-c3ccc4[nH]c5nccc(-c6ccc(-c7ccccc7)cc6)c5c4c3)cc2)CC1 [Example 5, 4-Biphenyl-4-yl-6-[4-(4-methylpiperazin-1-yl)-phenyl]-9H-pyrido[2,3-b]indole] | > 25
6 | CN1CCN(c2ccc(-c3ccc4[nH]c5nccc(/C=C/c6cccc(F)c6)c5c4c3)cc2)CC1 [Example 6, (E)-4-[2-(3-Fluorophenyl)vinyl]-6-[4-(4-methylpiperazin-1-yl)-phenyl]-9H-pyrido[2,3-b]indole] | 9.5
7 | COc1ccc(/C=C/c2ccnc3[nH]c4ccc(-c5ccc(N6CCN(C)CC6)cc5)cc4c23)cc1 [Example 7, (E)-4-[2-(4-Methoxyphenyl)vinyl]-6-[4-(4-methylpiperazin-1-yl)-phenyl]-9H-pyrido[2,3-b]indole] | 4.1
8 | CN1CCN(c2ccc(-c3ccc4[nH]c5nccc(-c6ccc(OCc7ccccc7)cc6)c5c4c3)cc2)CC1 [Example 8, 4-(4-Benzyloxyphenyl)-6-[4-(4-methylpiperazin-1-yl)-phenyl]-9H-pyrido[2,3-b]indole] | 5
9 | CN1CCN(c2ccc(-c3ccc4[nH]c5nccc(-c6ccc(COc7cccc(C(F)(F)F)c7)cc6)c5c4c3)cc2)CC1 [Example 9, 6-[4-(4-Methylpiperazin-1-yl)-phenyl]-4-[4-(3-trifluoromethyl-phenoxymethyl)-phenyl]-9H-pyrido[2,3-b]indole] | 25
10 | COc1ccccc1/C=C/c1ccnc2[nH]c3ccc(-c4ccc(N5CCN(C)CC5)cc4)cc3c12 [Example 10, (E)-4-(2-(2-Methoxyphenyl)vinyl)-6-(4-(4-methylpiperazin-1-yl)phenyl)-9H-pyrido[2,3-b]indole] | 2.1
11 | CN1CCN(c2ccc(-c3ccc4[nH]c5nccc(/C=C/c6ccccc6C(F)(F)F)c5c4c3)cc2)CC1 [Example 11, (E)-6-(4-(4-Methylpiperazin-1-yl)phenyl)-4-(2-(2-(trifluoromethyl)phenyl)vinyl)-9H-pyrido[2,3-b]indole] | 1.7
12 | Cc1cc(OCc2ccc(-c3ccnc4[nH]c5ccc(-c6ccc(N7CCN(C)CC7)cc6)cc5c34)cc2)ccc1Cl [Example 12, 4-[4-(4-Chloro-3-methyl-phenoxymethyl)-phenyl]-6-[4-(4-methylpiperazin-1-yl)-phenyl]-9H-pyrido[2,3-b]indole] | > 50
13 | CN1CCN(c2ccc(-c3ccc4[nH]c5nccc(/C=C/c6ccc(F)cc6)c5c4c3)cc2)CC1 [Example 13, (E)-4-(2-(4-Fluorophenyl)vinyl)-6-(4-(4-methylpiperazin-1-yl)phenyl)-9H-pyrido[2,3-b]indole] | 7.6
14 | CN1CCN(c2ccc(-c3ccc4[nH]c5nccc(/C=C/c6ccc(C(F)(F)F)cc6)c5c4c3)cc2)CC1 [Example 14, (E)-6-(4-(4-Methylpiperazin-1-yl)phenyl)-4-(2-(4-(trifluoromethyl)phenyl)vinyl)-9H-pyrido[2,3-b]indole] | > 25
15 | CN1CCN(c2ccc(-c3ccc4[nH]c5nccc(-c6ccc(-c7ccccc7)cc6F)c5c4c3)cc2)CC1 [Example 15, 4-(3-Fluoro-biphenyl-4-yl)-6-[4-(4-methylpiperazin-1-yl)-phenyl]-9H-pyrido[2,3-b]indole] | 6.3
16 | CN1CCN(c2ccc(-c3ccc4[nH]c5nccc(-c6cccc(-c7ccccc7)c6)c5c4c3)cc2)CC1 [Example 17, 4-Biphenyl-3-yl-6-[4-(4-methylpiperazin-1-yl)-phenyl]-9H-pyrido[2,3-b]indole] | 2.7
17 | CN1CCN(c2ccc(-c3ccc4[nH]c5nccc(/C=C/c6ccccc6F)c5c4c3)cc2)CC1 [Example 18, (E)-4-(2-(2-Fluorophenyl)vinyl)-6-(4-(4-methylpiperazin-1-yl)phenyl)-9H-pyrido[2,3-b]indole] | 5.1
18 | CN1CCN(c2ccc(-c3ccc4[nH]c5nccc(/C=C/c6ccccc6Cl)c5c4c3)cc2)CC1 [Example 19, (E)-4-(2-(2-Chlorophenyl)vinyl)-6-(4-(4-methylpiperazin-1-yl)phenyl)-9H-pyrido[2,3-b]indole] | 2
19 | CN1CCC(N2CCN(c3ccc(-c4ccc5[nH]c6nccc(-c7ccc(Cc8ccccc8)cc7)c6c5c4)cc3)CC2)CC1 [Example 21, 4-(4-Benzylphenyl)-6-(4-(4-(1-methylpiperidin-4-yl)piperazin-1-yl)phenyl)-9H-pyrido[2,3-b]indole] | 3.7
20 | CN1CCC(N2CCN(c3ccc(-c4ccc5[nH]c6nccc(/C=C/c7ccccc7C(F)(F)F)c6c5c4)cc3)CC2)CC1 [Example 22, (E)-6-(4-(4-(1-Methylpiperidin-4-yl)piperazin-1-yl)phenyl)-4-(2-(2-(trifluoromethyl)phenyl)vinyl)-9H-pyrido[2,3-b]indole] | 3.9
21 | CN1CCN(c2ccc(-c3ccc4[nH]c5nccc(-c6ccc(C(=O)c7ccccc7)cc6)c5c4c3)cc2)CC1 [Example 23, (4-{6-[4-(4-Methylpiperazin-1-yl)-phenyl]-9H-pyrido[2,3-b]indol-4-yl}-phenyl)-phenyl-methanone] | 2.3
22 | CN1CCN(c2ccc(-c3ccc4[nH]c5nccc(-c6ccc(-c7cccc8ccccc78)cc6)c5c4c3)cc2)CC1 [Example 24, 6-[4-(4-Methylpiperazin-1-yl)-phenyl]-4-(4-naphthalen-1-yl-phenyl)-9H-pyrido[2,3-b]indole] | 18
23 | CN1CCN(c2ccc(-c3ccc4[nH]c5nccc(/C(=C/c6ccccc6)c6ccccc6)c5c4c3)cc2)CC1 [Example 25, (E)-4-(1,2-Diphenylvinyl)-6-[4-(4-methylpiperazin-1-yl)-phenyl]-9H-pyrido[2,3-b]indole] | 7.5
24 | COc1ccc(Cc2ccc(-c3ccnc4[nH]c5ccc(-c6ccc(N7CCN(C)CC7)cc6)cc5c34)cc2)c(OC)c1 [Example 26, 4-[4-(2,4-Dimethoxybenzyl)phenyl]-6-[4-(4-methylpiperazin-1-yl)-phenyl]-9H-pyrido[2,3-b]indole] | 0.63
25 | COc1ccccc1/C=C(\C)c1ccnc2[nH]c3ccc(-c4ccc(N5CCN(C)CC5)cc4)cc3c12 [Example 27, (E)-4-[1-(2-Methoxyphenyl)-prop-1-en-2-yl]-6-[4-(4-methylpiperazin-1-yl)-phenyl]-9H-pyrido[2,3-b]indole] | 2.4

From US9428500B2, “Alpha-carbolines for the treatment of cancer” (UNIVERSITA' DEGLI STUDI DI MILANO—BICOCCA, priority 2012, dated 2016)
